# “Also recorded” adds a separate entry of the source.
# Tests used:
# [1] = tested on: BV2 microglial cells stimulated with LPS; test: IL-6 level by ELISA in BV2 microglial cells stimulated with LPS; type: cell-based; details: for effect on IL-6 level (pro-inflammatory activity): 0–5 μM, LPS-stimulated BV2, in words; for IL-6 expression (ELISA): 5 μM, LPS-stimulated BV2
# [2] = type: in vivo, mouse; details: for concentration of metabolite formed, detected in plasma: mice given CBG 20 mg/kg, after 0.5 h
# [3] = tested on: human liver microsomes (HLM); test: CBG metabolism by human liver microsomes, targeted mass spectrometry; type: in vitro ADME
# [4] = after 0.5 h; cited from earlier work
# CYP2C8 [5] = test: Spectral; details: presence versus absence of CBG
# [6] = tested on: BV2 microglial cells stimulated with LPS; test: IL-10 level by ELISA in BV2 microglial cells stimulated with LPS; type: cell-based; details: for effect on IL-10 levels: 0–5 μM, LPS-stimulated BV2, in words; for expression of the anti-inflammatory cytokines: 5 μM, in words; for levels of IL-10 (ELISA): LPS-stimulated BV2, 5 μM implied
# CYP3A4 = CYP3A4 (Homo sapiens, UniProt P08684); test: Spectral
# Chain of CYP3A4 (P08684 whole entry): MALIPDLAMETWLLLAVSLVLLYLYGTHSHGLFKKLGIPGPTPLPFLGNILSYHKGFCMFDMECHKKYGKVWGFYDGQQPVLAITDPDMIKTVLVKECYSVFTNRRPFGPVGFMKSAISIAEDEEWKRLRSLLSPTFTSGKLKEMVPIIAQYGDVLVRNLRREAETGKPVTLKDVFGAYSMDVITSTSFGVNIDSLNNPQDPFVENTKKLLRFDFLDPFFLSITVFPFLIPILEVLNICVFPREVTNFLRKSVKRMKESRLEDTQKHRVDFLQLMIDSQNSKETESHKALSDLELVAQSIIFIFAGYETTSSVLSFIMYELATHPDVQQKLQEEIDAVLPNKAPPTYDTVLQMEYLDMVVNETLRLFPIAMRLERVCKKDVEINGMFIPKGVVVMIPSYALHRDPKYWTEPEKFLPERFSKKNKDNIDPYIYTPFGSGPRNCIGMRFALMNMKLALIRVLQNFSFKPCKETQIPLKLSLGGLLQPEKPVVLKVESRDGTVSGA
# [7] = tested on: BV2 microglial cells stimulated with LPS; test: Nitric oxide level in BV2 microglial cells stimulated with LPS; type: cell-based; details: highest reduction among analogs (Figure S8)
# CYP2D6 [8] = target: T1, CYP2D6 (Homo sapiens, UniProt P10635); test: biochemical
# T1 sequence (P10635 whole entry): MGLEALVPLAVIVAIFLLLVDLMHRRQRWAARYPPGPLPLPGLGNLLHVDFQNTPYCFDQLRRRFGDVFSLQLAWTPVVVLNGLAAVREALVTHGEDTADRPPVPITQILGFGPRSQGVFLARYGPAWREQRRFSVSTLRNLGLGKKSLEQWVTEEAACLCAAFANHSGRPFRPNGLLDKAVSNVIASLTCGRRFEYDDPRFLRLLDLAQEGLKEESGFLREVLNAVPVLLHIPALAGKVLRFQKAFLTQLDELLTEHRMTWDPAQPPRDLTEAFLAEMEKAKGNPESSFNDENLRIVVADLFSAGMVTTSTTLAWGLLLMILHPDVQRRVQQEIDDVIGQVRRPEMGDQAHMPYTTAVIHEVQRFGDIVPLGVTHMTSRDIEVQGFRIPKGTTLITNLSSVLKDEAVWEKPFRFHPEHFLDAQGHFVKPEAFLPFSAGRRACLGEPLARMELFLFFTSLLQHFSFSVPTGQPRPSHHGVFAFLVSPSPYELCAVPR
# CYP2D6 [9] = target: T1, CYP2D6
# CYP2C8 [10] = details: human
# [11] = tested on: CYP2J2, 3A4, 2D6, 2C9 and 2C8; type: in vitro ADME; details: human
smiles,measurement,setting,value
"CCCCCc1cc(O)c(C/C=C(\C)CC/C=C(\C)CCC=C(C)C)c(O)c1 [sCBG, sesqicannabigerol]",effect on IL-6 level (pro-inflammatory activity),[1],concentration dependent reduction in IL-6 level
same,bioactivity compared to CBG metabolites having polar functional groups,"[1]; inflammatory cytokines in BV2 model, in words",does not significant bioactivity
CCCCCc1cc(O)c2c(c1)OC(C)(CCC=C(C)C)C(O)C2 (stereo not shown) [cyclo-CBG],"concentration of metabolite formed, detected in plasma",[2],1500 nM
same,"amount of cyclo-CBG relative to 6′,7′-epoxy-CBG in plasma",[2]; plasma of CBG treated mice,~ 100 times
same,"amount of cyclo-CBG produced relative to 6′,7′-epoxy-CBG",[3],~ 100 fold
"C=C(C)[C@@H]1CCC(C)=C[C@H]1c1c(O)cc(CCCCC)cc1O [CBD, cannabidiol]",level in human blood plasma,[4],~ 0.14 μM
"CC1=C(/C=C/C(C)=C/C=C/C(C)=C/C(=O)O)C(C)(C)CCC1 [RTA, all trans-retinoic acid]",increase of Ks on addition of RTA to CBG-bound CYP,CYP2C8 [5],~ 1.3 times
same,increase of ΔAmax on addition of RTA to CBG-bound CYP,CYP2C8 [5],~ 1.2 times
"CCCCCc1cc(O)c(C/C=C(\C)CCC2OC2(C)C)c(O)c1 (stereo not shown) [6′,7′-epoxy-CBG]",effect on IL-10 levels,[6],concentration dependent increase in IL-10 levels
same,"concentration of metabolite formed, detected in plasma",[2],7.5 nM
same,effect on IL-6 level (pro-inflammatory activity),[1],lowering in IL-6 expression
"C[C@]12CC[C@H]3[C@@H](CCC4=CC(=O)CC[C@@]43C)[C@@H]1CC[C@@H]2O [TST, testosterone, reference compound]",TST binds more strongly as compared to CBG,"CYP3A4; direct binding, TST versus CBG",~5 times
"CCCCCc1cc(O)c2c(c1)OC(C)(C)[C@@H]1CCC(C)=C[C@@H]21 [THC, Δ^9-tetrahydrocannabinol]",level in human blood plasma,[4],~ 0.06 μM
"CCCCCc1cc(O)c(CC(O)C(C)(O)CCC=C(C)C)c(O)c1 (stereo not shown) [2′,3′-dihydroxy-CBG, 2′,3′-dihydroxy CBG]",expression of the anti-inflammatory cytokines,[6],maximum expression of the anti-inflammatory cytokines
same,effect on IL-6 level (pro-inflammatory activity),[1],concentration dependent reduction in IL-6 level
"CCCCCc1cc(O)c(C/C=C(\C)CCC(O)C(C)(C)O)c(O)c1 (stereo not shown) [carmagerol, 6′,7′-dihydroxy CBG]",% NO level,[7],60.0±6.03%
same,effect on IL-10 levels,[6],concentration dependent increase in IL-10 levels
same,levels of IL-10 (ELISA),[6],159.5±16.7
same,effect on IL-6 level (pro-inflammatory activity),[1],lowering in IL-6 expression; also recorded: highest reduction in the pro-inflammatory activity
same,IL-6 expression (ELISA),[1],307.8±159.1
"CCCCCc1cc(O)c(C/C=C(\C)CCC=C(C)C)c(O)c1 [CBG, Cannabigerol]",Ki,CYP3A4,10 to 20 µM
same,% NO level,[7],64.1±5.9%
same,effect on IL-10 levels,[6],concentration dependent increase in IL-10 levels
same,expression of the anti-inflammatory cytokines,[6],maximum expression of the anti-inflammatory cytokines
same,levels of IL-10 (ELISA),[6],236.03±12.35
same,Ki,CYP2D6 [8],10 to 20 µM
same,Ks for CBG binding lower than for TDZ binding,CYP2D6 [9],~3.5 times
same,Ks of CBG higher than for CYP2J2,CYP2D6 [9],~3 times
same,concentration at 0.5 h,"[2]; female, mouse, in vivo",500 to 700 nM
same,concentration at 2 h,"[2]; female, mouse, in vivo",~50 nM
same,effect on IL-6 level (pro-inflammatory activity),[1],concentration dependent reduction in IL-6 level
same,IL-6 expression (ELISA),[1],414.2±75.2
same,Ks of CBG higher than for CYP2J2,CYP2C8 [10],~3 times
same,"Km for formation of cyclo-CBG, CYP2J2 relative to 2D6 and 2C8",[11],1.5–2 times

# Source: PMC10337483 (Biochemistry, 2022)
